The record followed here is PubChem BioAssay (NCI).

Several values for one entry are separate records, joined by “and”; a condition that tells them apart may be missing. Equal entries are not always repeated.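 Tested at 5 concentrations; 48 h exposure; 96-well plates; endpoints linearly interpolated, else capped at highest concentration. Here, GI50 denotes the concentration required for 50% inhibition of growth. TGI marks complete inhibition of growth.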 Where a SMILES comes first, the peptide text is derived from it. [ ]: non-standard residue; d: D form. The star is where a group is joined. ξ: configuration not given here. X16 = COC1=CC(=O)N(C(=O)C(O*)C(C)C)C1Cc1ccccc1; ξNMe2Val = CC(C)C(C(=O)*)N(C)C; NMeV = CN[CH](C(=O)O)C(C)C

Some test systems named below: DMS 114 small cell lung; M19-MEL melanoma; LXFL 529 NSCLC; DLD-1 colon; KM20L2 colon; HOP-18 NSCLC; DMS 273 small cell lung; SNB-78 CNS; P388/ADR leukemia; SN12K1 renal; P388 leukemia; RXF-631 renal.
Experiment in all cases: NCI tumour cell line growth inhibition, 48 h

Regarding `c1cnc2c(c1)-n1cccc1C1(CCOCC1)NN2`, the TGI with DMS 114 small cell lung, in the assay with M19-MEL melanoma, in the assay with LXFL 529 NSCLC, in the assay on DLD-1 colon, with KM20L2 colon and in the assay with HOP-18 NSCLC was more than 100 µM each time. The same compound returned a TGI with DMS 273 small cell lung of more than 100 µM.

For `O=C(NCCNCCO)N/N=C/c1cccc([N+](=O)[O-])c1`, the TGI in the assay on DMS 114 small cell lung, in the assay on M19-MEL melanoma, with LXFL 529 NSCLC, with SNB-78 CNS, with DLD-1 colon and with KM20L2 colon was more than 100 µM each time. For the same compound, the TGI in the assay with HOP-18 NSCLC and with DMS 273 small cell lung was more than 100 µM throughout.

With `Nc1cc2c(cc1[N+](=O)[O-])[nH]c1c(-c3ccccc3)nccc12`, the TGI with DMS 114 small cell lung is 35.7 µM; in the assay with M19-MEL melanoma, 42.7 µM; in the assay on P388/ADR leukemia, 44.5 µM; in the assay with SNB-78 CNS it was more than 58.2 µM; in the assay with DLD-1 colon it was more than 76.5 µM; in the assay on SN12K1 renal, 67.7 µM. Besides, the TGI in the assay on P388 leukemia is 41 µM; in the assay with KM20L2 colon it was more than 82.8 µM; in the assay with HOP-18 NSCLC, 50.8 µM; in the assay on DMS 273 small cell lung, 48.9 µM.

As to `N=C(N)/N=C(/C=C/c1ccccc1)CC1OC(=O)c2ccccc21` (stereo not drawn), the TGI with DMS 114 small cell lung, in the assay with M19-MEL melanoma, in the assay with LXFL 529 NSCLC, in the assay with DLD-1 colon, in the assay with KM20L2 colon and in the assay on DMS 273 small cell lung was more than 100 µM each time.

For the compound `Cc1ccc(OP2(=O)Oc3ccc4ccccc4c3CN2c2ccc(Cl)cc2)cc1C` (stereo not drawn), the TGI with DMS 114 small cell lung, with M19-MEL melanoma, with P388/ADR leukemia, in the assay on SNB-78 CNS, with DLD-1 colon and with SN12K1 renal was more than 100 µM each time. Further, the TGI in the assay with P388 leukemia, in the assay on KM20L2 colon, in the assay with HOP-18 NSCLC and with DMS 273 small cell lung was more than 100 µM in each case.

For the compound `Cc1ccc(-c2cc(-c3ccco3)nc(N)n2)o1`, the TGI in the assay on LXFL 529 NSCLC, with SNB-78 CNS, in the assay with KM20L2 colon and with DMS 273 small cell lung was more than 100 µM each time.

Consider `COC1/C=C\C=C(/C)C(=O)NC2=CC(=O)C(NCCCl)=C(CC(C)CC(OC)C(O)C(C)/C=C(/C)C1OC(N)=O)C2=O` (stereo not drawn), for which the TGI with DMS 114 small cell lung is 1.6 µM; in the assay on M19-MEL melanoma it was 1.57 µM; in the assay with LXFL 529 NSCLC, 13.9 µM; with SNB-78 CNS it was 19.2 µM; in the assay on DLD-1 colon, 11.6 µM; with KM20L2 colon it was 0.385 µM. Moreover, the results for the TGI in the assay on HOP-18 NSCLC and in the assay on DMS 273 small cell lung were 1.72 µM and 1.1 µM, respectively.

Regarding `COc1cc2c(cc1O)[C@H](C)C(c1ccc(Cl)cc1)O2` (stereo partly drawn), the TGI in the assay with DMS 114 small cell lung was 30.8 µM; with M19-MEL melanoma, 33 µM; in the assay on RXF-631 renal it was 50.5 µM; with LXFL 529 NSCLC it was 34.7 µM; in the assay with SNB-78 CNS, more than 100 µM; in the assay with DLD-1 colon, 79.6 µM. Also, the TGI is 66.2 µM in the assay with KM20L2 colon, more than 100 µM in the assay on HOP-18 NSCLC and 34.5 µM in the assay on DMS 273 small cell lung.

Take `O=c1[nH]cnc2c1nnn2CCCn1nnc2c(=O)[nH]cnc21`: the TGI in the assay with DMS 114 small cell lung, with M19-MEL melanoma, with LXFL 529 NSCLC, in the assay on SNB-78 CNS, in the assay with DLD-1 colon and in the assay with KM20L2 colon was more than 100 µM each time. Also, the TGI in the assay on HOP-18 NSCLC and in the assay on DMS 273 small cell lung was more than 100 µM throughout.

As for `c1ccc2[nH]c(-c3nc4ccccc4o3)nc2c1`, the TGI in the assay with DMS 114 small cell lung, in the assay with M19-MEL melanoma, with LXFL 529 NSCLC, in the assay on SNB-78 CNS, with DLD-1 colon and in the assay on KM20L2 colon was more than 100 µM in each case. For the same compound, the TGI with DMS 273 small cell lung is more than 100 µM.

Regarding `COC(=O)/C(=C/c1ccc(OC)cc1)C(C(=O)O)=C(C)C`, the TGI in the assay on DMS 114 small cell lung, in the assay with M19-MEL melanoma, in the assay with LXFL 529 NSCLC, in the assay with SNB-78 CNS, with DLD-1 colon and in the assay on KM20L2 colon was more than 100 µM in each case. For the same compound, the TGI with HOP-18 NSCLC and in the assay with DMS 273 small cell lung was more than 100 µM each time.

Regarding `Oc1c(Cl)c2nccnc2c2ccccc12`, the TGI in the assay with DMS 114 small cell lung, in the assay on M19-MEL melanoma, in the assay on LXFL 529 NSCLC, in the assay with SNB-78 CNS, in the assay on DLD-1 colon and in the assay with KM20L2 colon was more than 100 µM each time. Also, the TGI in the assay with HOP-18 NSCLC and in the assay with DMS 273 small cell lung was more than 100 µM each time.

For `C=CCN1C(=O)CS/C1=N\NC(=O)c1c(C)nc2sccn12`, the TGI with DMS 114 small cell lung, in the assay on M19-MEL melanoma, in the assay with RXF-631 renal, with LXFL 529 NSCLC, in the assay with DLD-1 colon and in the assay with KM20L2 colon was more than 100 µM each time. The TGI with HOP-18 NSCLC and in the assay with DMS 273 small cell lung was more than 100 µM each time.

Turning to `C=C/C(C)=C/[C@H](C)C(=O)C[C@H](O)CC1CC(=O)NC(=O)C1`, the TGI with DMS 114 small cell lung, in the assay on M19-MEL melanoma, in the assay with P388/ADR leukemia, in the assay with SNB-78 CNS, with DLD-1 colon and with SN12K1 renal was more than 100 µM in each case. The TGI is more than 100 µM in the assay with P388 leukemia, more than 100 µM with KM20L2 colon, more than 93.6 µM in the assay with HOP-18 NSCLC and more than 100 µM in the assay on DMS 273 small cell lung.

For the compound `CC(C)(C)C1CC[C@H]2c3c([nH]c4ccc(Br)cc34)[C@H]3C(=O)N(c4ccccc4)C(=O)[C@H]3[C@H]2C1` (stereo partly drawn), the TGI with DMS 114 small cell lung was 69.1 µM; with M19-MEL melanoma it was 49.8 µM; in the assay with RXF-631 renal, 19.5 µM; with LXFL 529 NSCLC, 31.3 µM; in the assay with SNB-78 CNS, 33.4 µM; in the assay with DLD-1 colon it was more than 100 µM. Further, the TGI in the assay on KM20L2 colon was more than 100 µM; in the assay on HOP-18 NSCLC it was more than 100 µM; with DMS 273 small cell lung, 22.4 µM.

For the compound `CN(C)[C@@H]1C(=O)C(C(N)=O)=C(O)[C@@]2(O)C(=O)C3=C(O)c4c(O)cccc4C[C@H]3C[C@@H]12`, the TGI worked out at 6.41 µM in the assay with DMS 114 small cell lung; 3.12 µM in the assay on M19-MEL melanoma; 3.88 µM with LXFL 529 NSCLC; 10.8 µM with DLD-1 colon; 6.18 µM in the assay on KM20L2 colon; 3.56 µM in the assay with HOP-18 NSCLC.

Turning to `OCC(O)COc1ccc(Br)cc1` (stereo not drawn), the TGI with DMS 114 small cell lung, with RXF-631 renal, in the assay on LXFL 529 NSCLC, in the assay on DLD-1 colon, with KM20L2 colon and in the assay with HOP-18 NSCLC was more than 100 µM each time. In the assay with DMS 273 small cell lung, this compound had a TGI of more than 100 µM.

For the compound `COC1=CC(=O)N(C(=O)C(OC(=O)C2CCCN2C(=O)C2CCCN2C(=O)C(C(C)C)N(C)C(=O)C(NC(=O)C(C(C)C)N(C)C)C(C)C)C(C)C)C1Cc1ccccc1` (stereo not drawn) (ξNMe2Val-V[NMeV]PP-X16; configuration not given here), the GI50 in the assay on DMS 114 small cell lung is less than 0.0004 µM; with M19-MEL melanoma it was less than 0.0004 µM; in the assay with SNB-78 CNS it was less than 0.0004 µM; with DLD-1 colon it was less than 0.0004 µM; in the assay with KM20L2 colon, less than 0.0004 µM; in the assay on HOP-18 NSCLC it was more than 4 µM. Moreover, in the assay on DMS 273 small cell lung, the GI50 is less than 0.0004 µM. Besides, the TGI with DMS 114 small cell lung was 0.00601 µM and 0.00714 µM; in the assay on M19-MEL melanoma, more than 4 µM; with P388/ADR leukemia, 0.556 µM; in the assay on SNB-78 CNS it was 0.811 µM; with DLD-1 colon, more than 4 µM; in the assay on SN12K1 renal it was 0.000527 µM. Also, the TGI in the assay on HOP-18 NSCLC was more than 4 µM; in the assay on DMS 273 small cell lung, less than 0.0004 µM.
